Test results from US10660877B2 (BRISTOL-MYERS SQUIBB COMPANY, priority 2016, dated 2020).
Like-named read-outs stand apart in the source and are kept apart here.

Columns and labels:
human TLR9 = human TLR9 (Homo sapiens (Human), UniProt Q9NR96); assay: TLR9 inhibition reporter assay (HEK-Blue cells, SEAP reporter, ODN2006 stimulation);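 further: compounds tested over 0.05 nM to 50 µM, 22 h incubation, inhibition taken as SEAP signal drop from agonist plus DMSO wells toward a known inhibitor control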
Chain of human TLR9 (Q9NR96 26-1032): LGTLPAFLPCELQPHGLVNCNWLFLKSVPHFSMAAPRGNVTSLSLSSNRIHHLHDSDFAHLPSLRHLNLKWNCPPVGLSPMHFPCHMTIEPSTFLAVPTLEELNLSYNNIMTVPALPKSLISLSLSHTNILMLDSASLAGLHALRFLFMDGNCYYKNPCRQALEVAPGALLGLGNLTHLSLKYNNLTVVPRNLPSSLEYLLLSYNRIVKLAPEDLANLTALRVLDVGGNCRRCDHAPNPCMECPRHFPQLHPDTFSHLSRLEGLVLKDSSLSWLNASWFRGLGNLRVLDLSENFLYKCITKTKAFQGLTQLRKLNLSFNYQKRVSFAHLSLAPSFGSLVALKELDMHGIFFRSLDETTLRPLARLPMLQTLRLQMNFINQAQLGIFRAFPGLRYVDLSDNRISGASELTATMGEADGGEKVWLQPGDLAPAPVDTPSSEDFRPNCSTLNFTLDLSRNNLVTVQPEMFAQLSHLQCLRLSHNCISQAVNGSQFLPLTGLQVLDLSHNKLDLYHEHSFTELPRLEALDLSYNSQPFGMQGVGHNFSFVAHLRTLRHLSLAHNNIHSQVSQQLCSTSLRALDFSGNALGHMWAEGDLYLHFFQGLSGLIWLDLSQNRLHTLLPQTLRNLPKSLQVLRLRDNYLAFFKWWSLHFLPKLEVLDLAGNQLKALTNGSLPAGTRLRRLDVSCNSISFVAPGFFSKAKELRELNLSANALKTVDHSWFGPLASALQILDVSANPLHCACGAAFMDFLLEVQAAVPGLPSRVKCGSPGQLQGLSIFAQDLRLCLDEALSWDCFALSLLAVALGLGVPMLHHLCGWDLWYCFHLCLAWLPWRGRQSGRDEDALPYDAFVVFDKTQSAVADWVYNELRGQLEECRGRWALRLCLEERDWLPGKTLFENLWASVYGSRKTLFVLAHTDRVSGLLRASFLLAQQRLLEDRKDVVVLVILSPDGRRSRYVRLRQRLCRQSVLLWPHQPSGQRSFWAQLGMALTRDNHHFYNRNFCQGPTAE
Procedure: TLR7/8/9 Inhibition Reporter Assays
Briefly, cells are seeded into Greiner 384 well plates (15000 cells per well for TLR7, 20,000 for TLR8 and 25,000 for TLR9) and then treated with test compounds in DMSO to yield a final dose response concentration range of 0.05 nM-50 μM. […] After a 22 hour incubation at 37° C., 5% CO2, SEAP levels are determined with the addition of HEK-Blue™ Detection reagent (Invivogen), a cell culture medium that allows for detection of SEAP, according to manufacturer's specifications. The percent inhibition is determined as the % reduction in the HEK-Blue signal present in wells treated with agonist plus DMSO alone compared to wells treated with a known inhibitor.

human TLR8 = human TLR8 (Homo sapiens (Human), UniProt Q9NR97); assay: TLR8 inhibition reporter assay (HEK-Blue cells, SEAP reporter, R848 stimulation);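 further: compounds tested from 0.05 nM to 50 µM, 22 h at 37 °C, SEAP measured with HEK-Blue Detection, inhibition relative to agonist plus DMSO versus a known inhibitor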
Chain of human TLR8 (Q9NR97 27-1041): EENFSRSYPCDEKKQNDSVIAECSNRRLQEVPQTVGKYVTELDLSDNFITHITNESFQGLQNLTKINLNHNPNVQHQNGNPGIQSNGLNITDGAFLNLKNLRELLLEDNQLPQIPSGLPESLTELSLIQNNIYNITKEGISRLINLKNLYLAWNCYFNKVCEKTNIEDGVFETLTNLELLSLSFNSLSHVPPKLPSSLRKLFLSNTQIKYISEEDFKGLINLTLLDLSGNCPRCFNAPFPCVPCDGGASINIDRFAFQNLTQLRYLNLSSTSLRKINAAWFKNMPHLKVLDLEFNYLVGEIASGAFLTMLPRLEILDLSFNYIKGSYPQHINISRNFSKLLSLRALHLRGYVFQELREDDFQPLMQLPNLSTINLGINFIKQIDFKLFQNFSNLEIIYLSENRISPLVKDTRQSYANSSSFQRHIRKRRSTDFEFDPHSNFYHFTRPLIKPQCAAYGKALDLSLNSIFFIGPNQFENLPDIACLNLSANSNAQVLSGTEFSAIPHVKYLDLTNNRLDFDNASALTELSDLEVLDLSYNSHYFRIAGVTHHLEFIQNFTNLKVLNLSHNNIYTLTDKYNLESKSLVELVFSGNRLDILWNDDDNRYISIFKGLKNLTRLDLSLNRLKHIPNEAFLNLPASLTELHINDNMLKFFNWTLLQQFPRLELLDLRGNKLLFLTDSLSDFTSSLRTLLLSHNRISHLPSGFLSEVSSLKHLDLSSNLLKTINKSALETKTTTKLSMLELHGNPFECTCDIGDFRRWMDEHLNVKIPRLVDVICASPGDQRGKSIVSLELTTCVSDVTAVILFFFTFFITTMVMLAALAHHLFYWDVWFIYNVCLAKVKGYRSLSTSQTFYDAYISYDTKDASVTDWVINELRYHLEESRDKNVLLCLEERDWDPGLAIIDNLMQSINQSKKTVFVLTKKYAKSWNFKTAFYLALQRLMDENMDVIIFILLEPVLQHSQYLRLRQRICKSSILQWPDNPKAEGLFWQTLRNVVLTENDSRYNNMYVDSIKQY

human TLR7 = human TLR7 (Homo sapiens (Human), UniProt Q9NYK1); assay: TLR7 inhibition reporter assay (HEK-Blue cells, SEAP reporter, gardiquimod stimulation); assay type: cell-based; settings: HEK-Blue cells overexpressing human TLR7, gardiquimod 7.5 μM
Chain of human TLR7 (Q9NYK1 27-1049): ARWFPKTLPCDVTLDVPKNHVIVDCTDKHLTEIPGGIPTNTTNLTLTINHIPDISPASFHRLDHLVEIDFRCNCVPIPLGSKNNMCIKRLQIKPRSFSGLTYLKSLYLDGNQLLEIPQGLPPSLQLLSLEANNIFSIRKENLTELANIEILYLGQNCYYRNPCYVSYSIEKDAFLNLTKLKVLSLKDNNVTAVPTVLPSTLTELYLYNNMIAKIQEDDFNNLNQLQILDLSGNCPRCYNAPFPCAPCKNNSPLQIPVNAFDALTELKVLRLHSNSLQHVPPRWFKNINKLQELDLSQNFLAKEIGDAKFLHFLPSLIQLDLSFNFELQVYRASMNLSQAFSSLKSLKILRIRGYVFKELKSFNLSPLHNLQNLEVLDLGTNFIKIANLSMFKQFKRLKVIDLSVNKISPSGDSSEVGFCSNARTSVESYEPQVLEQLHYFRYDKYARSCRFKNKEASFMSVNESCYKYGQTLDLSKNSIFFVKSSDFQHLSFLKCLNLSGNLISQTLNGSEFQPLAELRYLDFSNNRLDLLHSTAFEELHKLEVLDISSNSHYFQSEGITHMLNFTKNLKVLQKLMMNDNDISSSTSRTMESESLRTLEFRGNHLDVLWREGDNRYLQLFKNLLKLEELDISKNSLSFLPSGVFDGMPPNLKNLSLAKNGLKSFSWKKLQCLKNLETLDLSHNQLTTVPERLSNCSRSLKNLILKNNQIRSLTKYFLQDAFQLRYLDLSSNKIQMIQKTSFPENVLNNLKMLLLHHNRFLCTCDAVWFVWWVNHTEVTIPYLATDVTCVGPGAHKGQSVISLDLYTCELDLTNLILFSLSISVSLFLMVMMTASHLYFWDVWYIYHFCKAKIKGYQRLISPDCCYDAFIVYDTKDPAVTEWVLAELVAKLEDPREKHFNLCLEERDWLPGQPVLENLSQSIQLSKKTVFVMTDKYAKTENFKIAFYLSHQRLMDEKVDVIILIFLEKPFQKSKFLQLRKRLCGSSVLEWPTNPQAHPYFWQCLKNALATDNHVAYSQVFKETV

[1] = read-out: TLR9 IC50, HEK-Blue cells overexpressing human TLR9, ODN2006 5 nM
[2] = read-out: TLR8 IC50, HEK-Blue cells overexpressing human TLR8, R848 15.9 μM
[3] = TLR9 IC50, HEK-Blue cells overexpressing human TLR9, ODN2006 5 nM
[4] = TLR8 IC50, HEK-Blue cells overexpressing human TLR8, R848 15.9 μM

Row | SMILES | IC50 (human TLR9; [1]) [nM] | IC50 (human TLR8; [2]) [nM] | IC50 (human TLR7) [nM] | IC50 (human TLR9; [3]) [nM] | IC50 (human TLR8; [4]) [nM]
1 | Cc1cc(-c2[nH]c3ccc(C4CCN(C(=O)C(C)(C)C#N)CC4)cc3c2C(C)C)ccn1 [Example 615, 3-(4-(3-isopropyl-2-(2-methylpyridin-4-yl)-1H-indol-5-yl)piperidin-1-yl)-2,2-dimethyl-3-oxopropanenitrile] | 12200 | 243 | 80.9 | – | –
2 | Cc1cc(-c2[nH]c3ccc(C4CCN(C(=O)C5CC(=O)N(C)C5)CC4)cc3c2C(C)C)ccn1 (stereo not drawn) [Example 619, 4-(4-(3-isopropyl-2-(2-methylpyridin-4-yl)-1H-indol-5-yl)piperidine-1-carbonyl)-1-methylpyrrolidin-2-one] | > 50000 | 67.9 | 51.1 | – | –
3 | CCc1c(-c2ccnc(C)c2)[nH]c2ccc(C3CCN(C(=O)[C@H]4CC(F)(F)CN4)CC3)cc12 [Example 623, (R)-(4,4-difluoropyrrolidin-2-yl)(4-(3-ethyl-2-(2-methylpyridin-4-yl)-1H-indol-5-yl)piperidin-1-yl)methanone] | 14500 | 226 | 201 | – | –
4 | CCc1c(-c2ccnc(C)c2)[nH]c2ccc(C3CCN(C(=O)C4CCCNC4)CC3)cc12 (stereo not drawn) [Example 624, (4-(3-ethyl-2-(2-methylpyridin-4-yl)-1H-indol-5-yl)piperidin-1-yl)(piperidin-3-yl)methanone] | 311 | 44.1 | 128 | – | –
5 | CCc1c(-c2ccnc(C)c2)[nH]c2ccc(C3CCN(C(=O)C4CCNCC4)CC3)cc12 [Example 625, (4-(3-ethyl-2-(2-methylpyridin-4-yl)-1H-indol-5-yl)piperidin-1-yl)(piperidin-4-yl)methanone] | 177 | 83.5 | 84.5 | – | –
6 | CCc1c(-c2ccnc(C)c2)[nH]c2ccc(C3CCN(C(=O)C4(C)CCNCC4)CC3)cc12 [Example 626, (4-(3-ethyl-2-(2-methylpyridin-4-yl)-1H-indol-5-yl)piperidin-1-yl)(4-methylpiperidin-4-yl)methanone] | 169 | 53.5 | 62.6 | – | –
7 | CCc1c(-c2ccnc(C)c2)[nH]c2ccc(C3CCN(C(=O)C4CCNCC4c4ccccc4)CC3)cc12 (stereo not drawn) [Example 627, (4-(3-ethyl-2-(2-methylpyridin-4-yl)-1H-indol-5-yl)piperidin-1-yl)(3-phenylpiperidin-4-yl)methanone] | 546 | 325 | 531 | – | –
8 | CCc1c(-c2ccnc(C)c2)[nH]c2ccc(C3CCN(C(=O)[C@@H]4CCCCN4)CC3)cc12 [Example 628, (S)-(4-(3-ethyl-2-(2-methylpyridin-4-yl)-1H-indol-5-yl)piperidin-1-yl)(piperidin-2-yl)methanone] | – | – | 39.2 | 363 | 18.3
9 | CCc1c(-c2ccnc(C)c2)[nH]c2ccc(C3CCN(C(=O)[C@@H]4CCCN4)CC3)cc12 [Example 629] | – | – | 60.4 | 482 | 18.7
10 | CCc1c(-c2ccnc(C)c2)[nH]c2ccc(C3CCN(C(=O)C4CNC4)CC3)cc12 [Example 630, azetidin-3-yl (4-(3-ethyl-2-(2-methylpyridin-4-yl)-1H-indol-5-yl)piperidin-1-yl)methanone] | 333 | 40.2 | 70.4 | – | –
11 | CCc1c(-c2ccnc(C)c2)[nH]c2ccc(C3CCN(C(=O)C4CC5(CCNCC5)C4)CC3)cc12 [Example 631, (4-(3-ethyl-2-(2-methylpyridin-4-yl)-1H-indol-5-yl)piperidin-1-yl)(7-azaspiro[3.5]nonan-2-yl)methanone] | 434 | 36.8 | 75.6 | – | –
12 | CCc1c(-c2ccnc(C)c2)[nH]c2ccc(C3CCN(C(=O)CCC4CCNCC4)CC3)cc12 [Example 632, 1-(4-(3-ethyl-2-(2-methylpyridin-4-yl)-1H-indol-5-yl)piperidin-1-yl)-3-(piperidin-4-yl)propan-1-one] | 795 | 35.8 | 91.8 | – | –
13 | CCc1c(-c2ccnc(C)c2)[nH]c2ccc(C3CCN(C(=O)C4CCNC4)CC3)cc12 (stereo not drawn) [Example 633, (4-(3-ethyl-2-(2-methylpyridin-4-yl)-1H-indol-5-yl)piperidin-1-yl)(pyrrolidin-3-yl)methanone] | 311 | 83.3 | 39 | – | –
14 | Cc1cc(-c2[nH]c3ccc(C4CCN(C(=O)C5(N)COC5)CC4)cc3c2C(C)C)ccn1 [Example 634, (3-aminooxetan-3-yl)(4-(3-isopropyl-2-(2-methylpyridin-4-yl)-1H-indol-5-yl)piperidin-1-yl)methanone] | > 50000 | 223 | 73.5 | – | –
15 | COc1cc(-c2[nH]c3ccc(C4CCN(CC(F)(F)F)CC4)cc3c2C(C)C)ccn1 [Example 639, 3-isopropyl-2-(2-methoxypyridin-4-yl)-5-(1-(2,2,2-trifluoroethyl)piperidin-4-yl)-1H-indole] | 19400 | 13400 | 3110 | – | –

Now those with a lower IC50 (human TLR7), led by results:

Row | IC50 (human TLR9; [1]) [nM] | IC50 (human TLR8; [2]) [nM] | IC50 (human TLR7) [nM] | IC50 (human TLR9; [3]) [nM] | IC50 (human TLR8; [4]) [nM] | SMILES
16 | 1540 | 42.1 | 36.4 | – | – | Cc1nccc(-c2[nH]c3ccc(C4CCN(C)CC4)cc3c2C(C)C)c1C [Example 637, 2-(2,3-dimethylpyridin-4-yl)-3-isopropyl-5-(1-methylpiperidin-4-yl)-1H-indole]
17 | 32900 | 121 | 33.7 | – | – | Cc1cc(-c2[nH]c3ccc(C4CCN(C(=O)CC#N)CC4)cc3c2C(C)C)ccn1 [Example 616, 3-(4-(3-isopropyl-2-(2-methylpyridin-4-yl)-1H-indol-5-yl)piperidin-1-yl)-3-oxopropanenitrile]
18 | 3300 | 55.1 | 15.6 | – | – | COc1cc(-c2[nH]c3ccc(C4CCN(C)CC4)cc3c2C(C)C)ccn1 [Example 638, 3-isopropyl-2-(2-methoxypyridin-4-yl)-5-(1-methylpiperidin-4-yl)-1H-indole]
19 | 1370 | 1 | 9.8 | – | – | Cc1cc(-c2[nH]c3ccc(C4CCN(C)CC4)cc3c2C(C)C)c(C)cn1 [Example 636, 2-(2,5-dimethylpyridin-4-yl)-3-isopropyl-5-(1-methylpiperidin-4-yl)-1H-indole]
20 | – | – | 8.1 | 3570 | 3.5 | CNCC(=O)N1CCC(c2ccc3[nH]c(-c4cc(C)ncc4C)c(C(C)C)c3c2)CC1 [Example 620, 1-(4-(2-(2,5-dimethylpyridin-4-yl)-3-isopropyl-1H-indol-5-yl)piperidin-1-yl)-2-(methylamino)ethan-1-one]
21 | 3690 | 5.1 | 5.6 | – | – | Cc1cc(-c2[nH]c3ccc(C4CCN(C)CC4)cc3c2C(C)C)c(F)cn1 [Example 635, 2-(5-fluoro-2-methylpyridin-4-yl)-3-isopropyl-5-(1-methylpiperidin-4-yl)-1H-indole]
22 | 1590 | 5 | 2.4 | – | – | CNCC(=O)N1CCC(c2ccc3[nH]c(-c4cc(C)ncc4F)c(C(C)C)c3c2)CC1 [Example 621, 1-(4-(2-(5-fluoro-2-methylpyridin-4-yl)-3-isopropyl-1H-indol-5-yl)piperidin-1-yl)-2-(methylamino)ethan-1-one]
23 | 4010 | 6.1 | 1.2 | – | – | CNCC(=O)N1CCC(c2ccc3[nH]c(-c4cc(C)nc(C)c4F)c(C(C)C)c3c2)CC1 [Example 622, 1-(4-(2-(3-fluoro-2,6-dimethylpyridin-4-yl)-3-isopropyl-1H-indol-5-yl)piperidin-1-yl)-2-(methylamino)ethan-1-one]
